Experimental data as given in patent US6939686B2, “Methodology of using raman imaging microscopy for evaluating drug action within living cells” (Southwest Research Institute, priority 2000, dated 2005).

System: MDA435 breast cancer cells
Experiment: Ratio Raman imaging of drug uptake and distribution in a single living cell
Assay type: cell-based
Description: Raman imaging of the cell-drug interactions consists of several steps. First, the Raman spectrum of the drug is measured. From the Raman spectrum, the locations and relative intensities of the Raman peaks (or Raman modes) is determined. The combination of the multiple Raman peaks and their relative intensities provides a unique fingerprint of the drug. In the preferred embodiment, the Raman spectrum of the anticancer drug taxol was measured as illustrated in FIG. 1. From the spectrum the most significant Raman mode is 1002 cm^−1.
In the preferred embodiment the Raman signal of a breast tumor cell was studied and the Raman spectrum was measured. […] The laser beam was focused in the cell cytoplasm and nucleus areas to determine if there was any difference in their spectra. Each measurement was 120 seconds long. FIGS. 2 and 3 illustrate the Raman spectra of the cytoplasm and nucleus of the breast tumor cell, respectively. […]
The acquired Raman images are then processed by smoothing noises, de-blurring, and removing the intensity contributed from the fluorescence. […]
The restored Raman signal still contained the non-uniform illumination effect and fluorescent contribution, illustrated as follows: s(x,y)=K(x,y)·i(x,y)·t+Ko(x,y)·i(x,y)·t. From the Raman spectra illustrated in FIGS. 1-3, Raman peaks are riding on a broadband baseline that is contributed from the fluorescence. […]

CC(=O)O[C@H]1C(=O)[C@@]2(C)[C@H]([C@H](OC(=O)c3ccccc3)[C@]3(O)C[C@H](OC(=O)[C@H](O)[C@@H](NC(=O)c4ccccc4)c4ccccc4)C(C)=C1C3(C)C)[C@]1(OC(C)=O)CO[C@@H]1C[C@@H]2O [taxol]
drug distribution within the cell (ratio Raman image at 1002 cm^−1) (breast tumor cell exposed to 0.3 mg/ml taxol solution for one hour, FIG. 5(b)): taxol entered the tumor cell from the top membrane and gradually penetrated into the center of the cell | drug distribution at different depths of the cell (stack of ratio Raman images) (breast tumor cell treated with 0.3 mg/ml taxol solution for one hour, FIG. 7): More drug entered the cell from the middle layer (Z=6 μm)
